In the series the test system is CCRIS mutagenicity, Ames/micronucleus/aberration tests. Briefly: CCRIS mutagenicity studies.
Where [1] appears, read: Test System: AMES SALMONELLA TYPHIMURIUM, Strain/Indicator: TA98, Metabolic Activation: HAMSTER, LIVER, S-9, AROCLOR 1254 (10%), Method: PREINCUBATION
Setting [2] is: Test System: AMES SALMONELLA TYPHIMURIUM, Strain/Indicator: TA98, Metabolic Activation: NONE, Method: PREINCUBATION
Setting [3] is: Test System: AMES SALMONELLA TYPHIMURIUM, Strain/Indicator: TA98, Metabolic Activation: NONE, Method: STANDARD PLATE.
The mark [4] stands for this setting: Test System: AMES SALMONELLA TYPHIMURIUM, Strain/Indicator: TA98, Metabolic Activation: RAT, LIVER, S-9, AROCLOR 1254 (10%), Method: PREINCUBATION
Setting [5] is: Test System: AMES SALMONELLA TYPHIMURIUM, Strain/Indicator: TA100, Metabolic Activation: HAMSTER, LIVER, S-9, AROCLOR 1254 (10%), Method: PREINCUBATION
Where [6] appears, read: Test System: AMES SALMONELLA TYPHIMURIUM, Strain/Indicator: TA100, Metabolic Activation: NONE, Method: PREINCUBATION
The mark [7] stands for this setting: Test System: AMES SALMONELLA TYPHIMURIUM, Strain/Indicator: TA100, Metabolic Activation: RAT, LIVER, S-9, AROCLOR 1254 (10%), Method: PREINCUBATION
The mark [8] stands for this setting: Test System: AMES SALMONELLA TYPHIMURIUM, Strain/Indicator: TA1535, Metabolic Activation: HAMSTER, LIVER, S-9, AROCLOR 1254 (10%), Method: PREINCUBATION
The mark [9] stands for this setting: Test System: AMES SALMONELLA TYPHIMURIUM, Strain/Indicator: TA1535, Metabolic Activation: NONE, Method: PREINCUBATION
The mark [10] stands for this setting: Test System: AMES SALMONELLA TYPHIMURIUM, Strain/Indicator: TA1535, Metabolic Activation: RAT, LIVER, S-9, AROCLOR 1254 (10%), Method: PREINCUBATION

Activity calls are given as the source filed them. The rule behind the calls is not given here.

On to `CC(=O)Nc1ccc(N=Nc2cc(C)ccc2O)cc1`, for which the mutagenic call was “inactive; negative” (End Point: IN VITRO CHROMOSOMAL ABERRATIONS, Test System: CHO CELLS, Metabolic Activation: NONE); “inactive; negative” (End Point: IN VITRO CHROMOSOMAL ABERRATIONS, Test System: CHO CELLS, Metabolic Activation: RAT, LIVER, S-9, AROCLOR 1254); “active; positive” (Test System: AMES SALMONELLA TYPHIMURIUM, Strain/Indicator: TA97, Metabolic Activation: HAMSTER, LIVER, S-9, AROCLOR 1254 (10%), Method: PREINCUBATION); “active; positive” (Test System: AMES SALMONELLA TYPHIMURIUM, Strain/Indicator: TA97, Metabolic Activation: NONE, Method: PREINCUBATION); “active; positive” (Test System: AMES SALMONELLA TYPHIMURIUM, Strain/Indicator: TA97, Metabolic Activation: RAT, LIVER, S-9, AROCLOR 1254 (10%), Method: PREINCUBATION); “active; positive” (Test System: AMES SALMONELLA TYPHIMURIUM, Strain/Indicator: TA98, Metabolic Activation: HAMSTER, LIVER, S-9, AROCLOR 1254 (5, 10, 20%), Method: PREINCUBATION). The mutagenic call runs as follows: under setting [1], “active; positive”; (Test System: AMES SALMONELLA TYPHIMURIUM, Strain/Indicator: TA98, Metabolic Activation: HAMSTER, LIVER, S-9, AROCLOR 1254, Method: STANDARD PLATE) “active; positive”; (Test System: AMES SALMONELLA TYPHIMURIUM, Strain/Indicator: TA98, Metabolic Activation: HAMSTER, LIVER, S-9, Method: PREINCUBATION (PRIVAL METHOD)) “active; positive”; under setting [2], “active; positive”; under setting [3], “active; positive”; under setting [4], “active; positive”. The mutagenic call (Test System: AMES SALMONELLA TYPHIMURIUM, Strain/Indicator: TA98, Metabolic Activation: RAT, LIVER, S-9, AROCLOR 1254, HAMSTER, LIVER, S-9, AROCLOR 1254, Method: STANDARD PLATE) was “active; positive”; the mutagenic call under setting [5] is “active; positive”; the mutagenic call (Test System: AMES SALMONELLA TYPHIMURIUM, Strain/Indicator: TA100, Metabolic Activation: HAMSTER, LIVER, S-9, AROCLOR 1254, Method: STANDARD PLATE) was “active; positive”; the mutagenic call (Test System: AMES SALMONELLA TYPHIMURIUM, Strain/Indicator: TA100, Metabolic Activation: HAMSTER, LIVER, S-9, Method: PREINCUBATION (PRIVAL METHOD)) is “active; positive”; the mutagenic call under setting [6] is “active; positive”; the mutagenic call under setting [7] was “active; positive”. Besides, the mutagenic call under setting [8] is “inactive; negative”; the mutagenic call under setting [9] is “inactive; negative”; the mutagenic call under setting [10] was “inactive; negative”; the mutagenic call (Test System: AMES SALMONELLA TYPHIMURIUM, Strain/Indicator: TA1537, Metabolic Activation: NONE, Method: STANDARD PLATE) was “active; positive”; the mutagenic call (Test System: AMES SALMONELLA TYPHIMURIUM, Strain/Indicator: TA1537, Metabolic Activation: RAT, LIVER, S-9, AROCLOR 1254, HAMSTER, LIVER, S-9, AROCLOR 1254, Method: STANDARD PLATE) was “active; positive”; the mutagenic call (Test System: AMES SALMONELLA TYPHIMURIUM, Strain/Indicator: TA1538, Metabolic Activation: NONE, Method: STANDARD PLATE) was “active; positive”. The mutagenic call is, setting by setting: (Test System: AMES SALMONELLA TYPHIMURIUM, Strain/Indicator: TA1538, Metabolic Activation: RAT, LIVER, S-9, AROCLOR 1254, HAMSTER, LIVER, S-9, AROCLOR 1254, Method: STANDARD PLATE) “active; positive”; (Test System: Mouse lymphoma, Strain/Indicator: L5178Y (tk+/tk-), Metabolic Activation: None, Method: Suspension/Plate) “inactive; negative”; (Test System: Mouse lymphoma, Strain/Indicator: L5178Y (tk+/tk-), Metabolic Activation: Rat, Liver, S-9, Aroclor 1254, Method: Suspension/Plate) “inactive; inconclusive (previous evaluation negative)”.

Turning to `O=C(O)/C(Cl)=C(/CCl)C(=O)O`, the mutagenic call runs as follows: under setting [2], “inactive; negative”; under setting [6], “inactive; negative”; (Test System: AMES SALMONELLA TYPHIMURIUM, Strain/Indicator: TA104, Metabolic Activation: NONE, Method: PREINCUBATION) “inactive; negative”.

For the compound `ClC(Cl)C(Cl)(Cl)Cl`, the mutagenic call reads like this: (End Point: IN VITRO CHROMOSOMAL ABERRATIONS, Test System: CHINESE HAMSTER LUNG FIBROBLAST CELLS (CHL/IU), Metabolic Activation: RAT, LIVER, S-9, PHENOBARBITAL AND 5,6-BENZOFLAVONE) “inactive; negative”; (End Point: IN VITRO CHROMOSOMAL ABERRATIONS, Test System: CHINESE HAMSTER OVARY CELLS, Metabolic Activation: NONE) “inactive; negative”; (End Point: IN VITRO CHROMOSOMAL ABERRATIONS, Test System: CHINESE HAMSTER OVARY CELLS, Metabolic Activation: RAT, LIVER, S-9, AROCLOR 1254) “inactive; negative”; (Test System: MOUSE LYMPHOMA, Strain/Indicator: L5178Y (TK+/TK-), Metabolic Activation: NONE, Method: MICROWELL) “active; positive”; (Test System: MOUSE LYMPHOMA, Strain/Indicator: L5178Y (TK+/TK-), Metabolic Activation: S-9, Method: MICROWELL) “inactive; negative”.

As for `C=CCN(CC=C)c1cc(NC(C)=O)c(N=Nc2c(Br)cc([N+](=O)[O-])cc2[N+](=O)[O-])cc1OC`, the mutagenic call by setting is: under setting [3], “inactive; negative”; (Test System: AMES SALMONELLA TYPHIMURIUM, Strain/Indicator: TA98, Metabolic Activation: RAT, LIVER, S-9, AROCLOR 1254, Method: STANDARD PLATE) “active; positive”; (Test System: AMES SALMONELLA TYPHIMURIUM, Strain/Indicator: YG1041, Metabolic Activation: NONE, Method: STANDARD PLATE) “active; positive”; (Test System: AMES SALMONELLA TYPHIMURIUM, Strain/Indicator: YG1041, Metabolic Activation: RAT, LIVER, S-9, AROCLOR 1254, Method: STANDARD PLATE) “active; positive”.

As for `CCCCCC(N)=O`, the mutagenic call is “inactive; negative” under setting [1]; “inactive; negative” under setting [2]; “inactive; negative” under setting [4]; “inactive; negative” under setting [5]; “inactive; negative” under setting [6]; “inactive; negative” under setting [7]. The mutagenic call was “inactive; negative” under setting [8]; “inactive; negative” under setting [9]; “inactive; negative” under setting [10]; “inactive; negative” (Test System: AMES SALMONELLA TYPHIMURIUM, Strain/Indicator: TA1537, Metabolic Activation: HAMSTER, LIVER, S-9, AROCLOR 1254 (10%), Method: PREINCUBATION); “inactive; negative” (Test System: AMES SALMONELLA TYPHIMURIUM, Strain/Indicator: TA1537, Metabolic Activation: NONE, Method: PREINCUBATION); “inactive; negative” (Test System: AMES SALMONELLA TYPHIMURIUM, Strain/Indicator: TA1537, Metabolic Activation: RAT, LIVER, S-9, AROCLOR 1254 (10%), Method: PREINCUBATION).
